Measurements published in patent publication US7507860B2 (Pfizer Inc., priority 2004, dated 2009).

biological target: T1, human androgen receptor (hAR) (Homo sapiens, UniProt P10275); test: Competitive binding analysis on baculovirus/Sf9 generated hAR extracts with 3H-DHT tracer; conditions: hAR extract, 1 nM 3H-DHT, one hour at 4° C; mean of multiple tests; read-out: AR Binding IC50
T1 construct: made in house; host or cells: baculovirus/Sf9 insect cells (crude extract)
T1 sequence (P10275 1-920): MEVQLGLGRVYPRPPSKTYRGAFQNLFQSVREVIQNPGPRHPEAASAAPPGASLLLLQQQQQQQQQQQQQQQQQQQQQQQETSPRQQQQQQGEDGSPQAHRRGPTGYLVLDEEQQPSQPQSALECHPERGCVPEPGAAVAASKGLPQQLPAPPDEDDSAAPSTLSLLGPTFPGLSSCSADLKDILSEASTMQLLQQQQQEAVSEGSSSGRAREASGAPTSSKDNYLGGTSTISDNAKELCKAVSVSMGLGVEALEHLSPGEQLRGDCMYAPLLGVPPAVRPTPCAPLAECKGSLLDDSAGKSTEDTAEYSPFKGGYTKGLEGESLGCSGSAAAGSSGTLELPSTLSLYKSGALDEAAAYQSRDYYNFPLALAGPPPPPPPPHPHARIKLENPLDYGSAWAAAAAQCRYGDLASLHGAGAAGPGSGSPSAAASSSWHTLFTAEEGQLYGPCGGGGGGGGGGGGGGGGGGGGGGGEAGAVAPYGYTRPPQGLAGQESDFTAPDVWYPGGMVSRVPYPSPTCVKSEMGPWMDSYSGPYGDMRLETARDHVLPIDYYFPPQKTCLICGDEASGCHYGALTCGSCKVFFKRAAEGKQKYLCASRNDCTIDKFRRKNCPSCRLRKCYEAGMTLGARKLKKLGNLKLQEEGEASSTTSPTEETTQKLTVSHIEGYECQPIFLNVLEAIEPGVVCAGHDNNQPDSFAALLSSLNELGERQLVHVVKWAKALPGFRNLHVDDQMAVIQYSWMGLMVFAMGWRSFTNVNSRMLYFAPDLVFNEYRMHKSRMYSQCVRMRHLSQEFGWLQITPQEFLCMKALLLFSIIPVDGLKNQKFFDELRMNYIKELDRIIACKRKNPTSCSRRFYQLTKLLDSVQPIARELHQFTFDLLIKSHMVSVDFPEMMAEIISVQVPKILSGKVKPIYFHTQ
Protocol: The compounds of Formula I have affinity for the androgen receptor. […] The description below describes how the assay was carried out.
Competitive binding analysis was performed on baculovirus/Sf9 generated hAR extracts in the presence or absence of different concentrations of test agent and a fixed concentration of ^3H-dihydrotestosterone (^3H-DHT) as tracer. This binding assay method is a modification of a protocol previously described (Liao S., et. al. J. Steroid Biochem. 20:11-17 1984). Briefly, progressively decreasing concentrations of compounds are incubated in the presence of hAR extract (Chang et al. P.N.A.S. Vol. 89, pp. […], 1992), hydroxylapatite, and 1 nM^3H-DHT for one hour at 4° C. Subsequently, the binding reactions are washed three times to completely remove excess unbound ^3H-DHT. hAR bound ^3H-DHT levels are determined in the presence of compounds (=i.e competitive binding) and compared to levels bound when no competitor is present (=i.e. maximum binding). Compound binding affinity to the hAR is expressed as the concentration of compound at which one half of the maximum binding is inhibited. Table II below provides the results that were obtained for selected compounds (reported data is the mean of multiple tests as shown below)

Point of comparison: `CCCC(Oc1ccc(C#N)c(C(F)(F)F)c1)C(=O)NC(C)c1ccc(O)cc1` (stereo not drawn) [Example 6, 2-(4-Cyano-3-trifluoromethyl-phenoxy)-pentanoic acid [1-(4-hydroxy-phenyl)ethyl]-amide], IC50 455 nM. Against it:
- 2-(4-Cyano-3-trifluoromethyl-phenoxy)-4-methyl-pentanoic acid (2H-imidazo[1,2-a]pyridin-3-yl)-methyl)amide [Example 60] — within 1.5-fold, 318 nM
- COc1ccc([C@@H](C)NC(=O)C(CC(C)C)Oc2ccc(C#N)c(C(F)(F)F)c2)cc1 (stereo in doubt) [Example 110, 2-(4-Cyano-3-trifluoromethyl-phenoxy)-4-methyl-pentanoic acid [1-(4-methoxy-phenyl)-ethyl]-amide] — within 1.5-fold, 340 nM
- CC(C)CC(Oc1ccc(C#N)c(C(F)(F)F)c1)C(=O)N[C@@H](C)c1ccccc1 (stereo in doubt) [Example 112, 2-(4-Cyano-3-trifluoromethyl-phenoxy)-4-methyl-pentanoic acid (1-phenyl-ethyl)-amide] — within 1.5-fold, 329 nM
- CC(C)CC(Oc1ccc(C#N)c(C(F)(F)F)c1)C(=O)N[C@H](C)c1ccccc1 (stereo in doubt) [Example 122, 2-(4-Cyano-3-trifluoromethyl-phenoxy)-4-methyl-pentanoic acid (1-phenyl-ethyl)-amide] — within 1.5-fold, 329 nM
- CCNC(=O)C(CC(C)C)Oc1ccc(C#N)c(C(F)(F)F)c1 (stereo not drawn) [Example 3, 2-(4-Cyano-3-trifluoromethyl-phenoxy)-4-methyl-pentanoic acid ethylamide] — 1.8-fold lower, 247 nM
- CC(C)CC(Oc1ccc(C#N)c(C(F)(F)F)c1)C(=O)NCc1ccncc1 (stereo not drawn) [Example 16, 2-(4-Cyano-3-trifluoromethyl-phenoxy)-4-methyl-pentanoic acid (pyridin-4-yl-methyl)-amide] — within 1.5-fold, 368 nM
- CCCC(Oc1ccc(C#N)c(C(F)(F)F)c1)C(=O)NC(C)c1cccs1 (stereo not drawn) [Example 17, 2-(4-Cyano-3-trifluoromethyl-phenoxy)-pentanoic acid (1-thiophen-2-yl-ethyl)amide] — 2.2-fold higher, 1000 nM
- Cc1cccnc1CNC(=O)C(CC(C)C)Oc1ccc(C#N)c(C(F)(F)F)c1 (stereo not drawn) [Example 20, 2-(4-Cyano-3-trifluoromethyl-phenoxy)-4-methyl-pentanoic acid (3-methyl-pyridin-2-yl-methyl)-amide] — within 1.5-fold, 410 nM
- CSCCCNC(=O)C(CC(C)C)Oc1ccc(C#N)c(C(F)(F)F)c1 (stereo not drawn) [Example 21, 2-(4-Cyano-3-trifluoromethyl-phenoxy)-4-methyl-pentanoic acid (3-methylsulfanyl-propyl)-amide] — within 1.5-fold, 362 nM
- CC(C)CC(Oc1ccc(C#N)c(C(F)(F)F)c1)C(=O)NCC1Cc2ccccc2CO1 (stereo not drawn) [Example 27, 2-(4-Cyano-3-trifluoromethyl-phenoxy)-4-methyl-pentanoic acid (isochroman-3-yl-methyl)-amide] — 2.1-fold lower, 214 nM
- CCCC(Oc1ccc(C#N)c(C(F)(F)F)c1)C(=O)NCC1Cc2ccccc2CO1 (stereo not drawn) [Example 32, 2-(4-Cyano-3-trifluoromethyl-phenoxy)-pentanoic acid (isochroman-3-yl-methyl)amide] — within 1.5-fold, 407 nM
- CCCC(Oc1ccc(C#N)c(C(F)(F)F)c1)C(=O)NCc1cccc(OC)c1 (stereo not drawn) [Example 40, 2-(4-Cyano-3-trifluoromethyl-phenoxy)-pentanoic acid-3-methoxy-benzylamide] — 1.9-fold lower, 241 nM
- CCCC(Oc1ccc(C#N)c(C(F)(F)F)c1)C(=O)NCCc1ccc(C)cc1 (stereo not drawn) [Example 50, 2-(4-Cyano-3-trifluoromethyl-phenoxy)-pentanoic acid-(2-p-tolyl-ethyl)-amide] — within 1.5-fold, 399 nM
- CCCC(Oc1ccc(C#N)c(C(F)(F)F)c1)C(=O)NCCc1ccccc1OC (stereo not drawn) [Example 51, 2-(4-Cyano-3-trifluoromethyl-phenoxy)-pentanoic acid-[2-(2-methoxy-phenyl)ethyl]-amide] — within 1.5-fold, 381 nM
- CC(C)CC(Oc1ccc(C#N)c(C(F)(F)F)c1)C(=O)N(Cc1ccccc1)C(C)C (stereo not drawn) [Example 63, 2-(4-Cyano-3-trifluoromethyl-phenoxy)-4-methyl-pentanoic acid benzyl-isopropyl-amide] — within 1.5-fold, 482 nM
- CCCC(Oc1ccc(C#N)c(C(F)(F)F)c1)C(=O)N(Cc1ccccc1)C(C)C (stereo not drawn) [Example 67, 2-(4-Cyano-3-trifluoromethyl-phenoxy)-pentanoic acid benzyl-isopropyl-amide] — within 1.5-fold, 440 nM
- CC(C)CC(Oc1ccc(C#N)c(C(F)(F)F)c1)C(=O)NC(C)c1ccc(O)cc1 (stereo not drawn) [Example 69, 2-(4-Cyano-3-trifluoromethyl-phenoxy)-4-methyl-pentanoic acid [1-(4-hydroxyphenyl)-ethyl]-amide] — within 1.5-fold, 341 nM
- CC(C)CC(Oc1ccc(C#N)c(C(F)(F)F)c1)C(=O)NCc1ccc(C(C)C)cc1 (stereo not drawn) [Example 70, 2-(4-Cyano-3-trifluoromethyl-phenoxy)-4-methyl-pentanoic acid 4-isopropyl-benzylamide] — 1.8-fold lower, 253 nM
- COc1cccc(CNC(=O)C(CC(C)C)Oc2ccc(C#N)c(C(F)(F)F)c2)c1 (stereo not drawn) [Example 71, 2-(4-Cyano-3-trifluoromethyl-phenoxy)-4-methyl-pentanoic acid-3-methoxy-benzylamide] — 1.6-fold lower, 288 nM
- CCC(C)CNC(=O)C(CC(C)C)Oc1ccc(C#N)c(C(F)(F)F)c1 (stereo not drawn) [Example 75, 2-(4-Cyano-3-trifluoromethyl-phenoxy)-4-methyl-pentanoic acid-(2-methyl-butyl)amide] — within 1.5-fold, 417 nM
- Cc1ncccc1CNC(=O)C(CC(C)C)Oc1ccc(C#N)c(C(F)(F)F)c1 (stereo not drawn) [Example 76, 2-(4-Cyano-3-trifluoromethyl-phenoxy)-4-methyl-pentanoic acid (2-methyl-pyridin-3-yl-methyl)-amide] — within 1.5-fold, 479 nM
- CCCC(Oc1ccc(C#N)c(C(F)(F)F)c1)C(=O)NCc1cccc2ccccc12 (stereo not drawn) [Example 77, 2-(4-Cyano-3-trifluoromethyl-phenoxy)-pentanoic acid (naphthalene-1-yl-methyl)amide] — 1.6-fold lower, 292 nM
- Cc1ccc(NC(=O)C(CC(C)C)Oc2ccc(C#N)c(C(F)(F)F)c2)cc1O (stereo not drawn) [Example 88, 2-(4-Cyano-3-trifluoromethyl-phenoxy)-4-methyl-pentanoic acid (3-hydroxy-4-methyl-phenyl)-amide] — 1.5-fold lower, 296 nM
- CCCC(Oc1ccc(C#N)c(C(F)(F)F)c1)C(=O)NCCCSC (stereo not drawn) [Example 89, 2-(4-Cyano-3-trifluoromethyl-phenoxy)-pentanoic acid (3-methylsulfanyl-propyl)amide] — within 1.5-fold, 486 nM
- CCCC(Oc1ccc(C#N)c(C(F)(F)F)c1)C(=O)NCCSC (stereo not drawn) [Example 90, 2-(4-Cyano-3-trifluoromethyl-phenoxy)-pentanoic acid (2-methylsulfanyl-ethyl)amide] — 1.6-fold higher, 736 nM
- COc1ccc2[nH]cc(CCNC(=O)C(CC(C)C)Oc3ccc(C#N)c(C(F)(F)F)c3)c2c1 (stereo not drawn) [Example 98, 2-(4-Cyano-3-trifluoromethyl-phenoxy)-4-methyl-pentanoic acid [2-(5-methoxy-1H-indol-3-yl)-ethyl]-amide] — 1.6-fold lower, 279 nM
- CCCC(Oc1ccc(C#N)cc1Cl)C(=O)OCC (stereo not drawn) [Example 100, 2-(2-Chloro-4-cyano-phenoxy)-pentanoic acid ethyl ester] — within 1.5-fold, 347 nM
- CCCOCCCNC(=O)C(CCC)Oc1ccc(C#N)c(C(F)(F)F)c1 (stereo not drawn) [Example 115, 2-(4-Cyano-3-trifluoromethyl-phenoxy)-pentanoic acid (3-propoxy-propyl)-amide] — within 1.5-fold, 428 nM
- CCCC(Oc1ccc(C#N)c(C(F)(F)F)c1)C(=O)Nc1ccc(C)c(O)c1 (stereo not drawn) [Example 116, 2-(4-Cyano-3-trifluoromethyl-phenoxy)-pentanoic acid (3-hydroxy-4-methyl-phenyl)-amide] — 1.5-fold lower, 296 nM
